Measured values from patent US20240175863A1, “COMPOSITIONS AND METHODS FOR MONITORING ENPP1 ACTIVITY” (The Regents of University of Californa, priority 2021, published 2024).
Like-named read-outs stand apart in the source and are kept apart here.

How the values were obtained:
cardiac fibroblasts [1] = experiment: myocyte conditioned medium transferred to cardiac fibroblasts, cell death (substance added to cardiomyocytes); type: cell-based, mouse; conditions: for cardiac fibroblast cell death by conditioned medium of cardiomyocytes treated with AMP plus inhibitor: inhibitor added to cardiomyocytes at the time of addition of AMP; for cardiac fibroblast cell death by conditioned medium of cardiomyocytes treated with the substance alone: conditioned medium collected after 24 hours
cardiac fibroblasts [2] = experiment: direct treatment of cardiac fibroblasts with metabolites or inhibitors, cell death and rescue; type: cell-based, mouse
[3] = tested on: ENPP1 over-expressing cardiac fibroblasts; experiment: co-culture of ENPP1 over-expressing cardiac fibroblasts with rodent ventricular cardiomyocytes plus ATP; type: cell-based, mouse
cardiac fibroblasts [4] = experiment: rescue of cardiac fibroblast cell death induced by ENPP1+ATP myocyte conditioned medium (substance added to fibroblasts); type: cell-based, mouse; conditions: for cell death of cardiac fibroblasts treated with ENPP1+ATP myocyte conditioned medium in presence of the substance: substance added to cardiac fibroblasts
Source text: Unable to readily identity the pro-apoptotic metabolites, the studies sought alternative physiologic principles of approaching the problem. The data has consistently shown that the ENPP1+ATP myocyte conditioned medium caused death of a wide range of non-myocyte cells, but that myocytes themselves are not affected. This could be possibly secondary to a specific receptor that is present in non-myocytes and not in myocytes. However, as non-myocyte cells of different lineages are affected, it was hypothesized that the ability of myocytes to be immune to the conditioned medium likely reflects an inherent cellular property of myocytes that distinguishes itself from that in non-myocyte cells tested by us. As non-myocytes are proliferative and myocytes are non-proliferative, it was hypothesized that the ability to cycle was making the non-myocytes susceptible to the metabolites secreted by the myocyte. To determine whether this was true, the studies harvested primary cardiac fibroblasts and induced cell cycle arrest of freshly harvested cardiac fibroblasts by irradiating them.
It also provided an obvious explanation as to why non-proliferative myocytes are immune to the effects of the metabolite(s). A nucleotide balance between the content of purines and pyrimidines available to cycling cells is critical to avoid genotoxic stress and maintain genomic stability. It was hypothesized that disruption of the nucleotide biosynthetic pathways in non-myocyte cells and an imbalance of purine versus pyrimidine nucleotides was inducing genotoxic stress and initiating a DNA damage response in proliferating non-myocytes. The studies treated cardiac fibroblasts with ENPP1+ATP myocyte conditioned medium for 24 hours and measured the content of nucleoside monophosphate and nucleoside triphosphates in treated cardiac fibroblasts by LC/MS-MS. […] To determine whether this is true, the studies attempted to rescue cell death of cardiac fibroblasts by adding uridine or deoxycytidine to the ENPP1+ATP myocyte conditioned medium. Cardiac fibroblasts were treated with the ENPP1+ATP myocyte conditioned medium but uridine or deoxycytidine or both were added to the cardiac fibroblasts at the time of addition of ENPP1+ATP myocyte conditioned medium (FIG. 5C). […] Deoxycytidine serves as a precursor of dCTP synthesis via the enzyme deoxycytidine kinase.
Pyrimidine biosynthesis occurs via a sequence of well-regulated steps (FIG. 5H), where carbamoyl phosphate is converted to carbamoyl aspartate and then to dihydroorotate. Dihydroorotate dehydrogenase (DHODH) then converts dihydroorotate to the pyrimidine orotate. In the presence of phosphoribosyl pyrophosphate (PRPP), orotate is converted by phosphoribosyl transferase activity of UMP synthase to orotidine monophosphate (OMP) and then decarboxylated by OMP decarboxylase activity of UMP synthase to uridine monophosphate (UMP). To determine which steps in pyrimidine biosynthesis are affected in cycling non-myocytes, the studies treated cardiac fibroblasts with ENPP1+ATP myocyte conditioned medium and 24 hours later harvested the cells and subjected the cardiac fibroblasts to mass spectrometry to determine metabolites in the pyrimidine biosynthesis pathway. […] As orotate levels were increased but orotidine levels decreased in cardiac fibroblasts treated with ENPP1+ATP myocyte conditioned medium, it was hypothesized that inhibition was occurring at the OMP synthesis step from orotate and PRPP (orotate phosphoribosyl transferase). […]

[5] = tested on: primary mouse embryonic fibroblasts (mEF); experiment: mouse embryonic fibroblasts treated with ENPP1+ATP myocyte conditioned medium, cell death; type: cell-based
[6] = tested on: gamma H2A.X and p53Ser15 phosphorylation in non-myocyte cells; experiment: immunostaining of DNA damage response in non-myocyte cells of injured hearts; type: in vivo, mouse; conditions: hearts of myricetin treated animals
[7] = tested on: C57BL/6 animals subjected to ischemic cardiac injury
ENPP1 = target: T1, ENPP1 (UniProt P22413); experiment: cell free luciferase based luminescent assay for ENPP1 inhibitors; type: biochemical
T1 sequence (P22413 1-925): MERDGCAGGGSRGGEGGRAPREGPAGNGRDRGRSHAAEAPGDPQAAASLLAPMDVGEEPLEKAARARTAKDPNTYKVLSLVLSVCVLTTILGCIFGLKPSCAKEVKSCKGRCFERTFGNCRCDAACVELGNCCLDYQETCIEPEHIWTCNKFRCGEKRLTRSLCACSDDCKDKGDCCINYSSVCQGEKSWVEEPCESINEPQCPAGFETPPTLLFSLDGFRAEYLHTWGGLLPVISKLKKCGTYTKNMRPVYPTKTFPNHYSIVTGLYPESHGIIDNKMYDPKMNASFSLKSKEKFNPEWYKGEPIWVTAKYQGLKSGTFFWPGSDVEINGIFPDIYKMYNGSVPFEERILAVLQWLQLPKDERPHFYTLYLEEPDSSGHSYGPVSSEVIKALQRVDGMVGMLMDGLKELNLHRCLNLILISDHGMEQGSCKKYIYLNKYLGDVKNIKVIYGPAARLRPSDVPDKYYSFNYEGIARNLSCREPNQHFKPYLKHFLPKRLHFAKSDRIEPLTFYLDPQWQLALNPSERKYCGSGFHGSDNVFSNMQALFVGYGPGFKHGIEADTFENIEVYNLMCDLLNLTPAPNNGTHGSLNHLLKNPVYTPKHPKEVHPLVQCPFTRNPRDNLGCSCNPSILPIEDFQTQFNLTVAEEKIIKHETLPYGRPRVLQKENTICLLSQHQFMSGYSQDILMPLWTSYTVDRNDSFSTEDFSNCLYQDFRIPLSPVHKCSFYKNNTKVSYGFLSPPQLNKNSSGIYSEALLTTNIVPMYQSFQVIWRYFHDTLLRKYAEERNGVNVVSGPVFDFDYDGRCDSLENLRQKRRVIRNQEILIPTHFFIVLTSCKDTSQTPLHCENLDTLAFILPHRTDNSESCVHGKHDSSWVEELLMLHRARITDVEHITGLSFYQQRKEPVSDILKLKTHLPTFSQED

pyrimidine biosynthesis = experiment: metabolomic analysis of hearts and serum after cardiac injury; type: in vivo, mouse
[8] = 30 mg/kg myricetin intra-peritoneally daily for 14 days
[9] = 30 mg/kg myricetin intra-peritoneally daily for 14 days, day 7 after injury, n=15
[10] = myricetin versus vehicle treated injured hearts
[11] = myricetin versus vehicle, day 3
[12] = uridine continuous infusion for 14 days
[13] = uridine continuous infusion for 14 days, day 7 after injury, mean±S.E.M., n=15

Compound: C[C@H](Nc1cc(Cl)nc2c1cnn2[C@@H]1O[C@H](COP(=O)(O)CP(=O)(O)O)[C@@H](O)[C@H]1O)c1ccccc1F [AB680]
- cardiac fibroblast cell death by conditioned medium of cardiomyocytes treated with AMP plus inhibitor (cardiac fibroblasts [1]): significantly increases cardiac fibroblast cell death

Compound: Nc1ncnc2nc(-c3ccc(N4CCOCC4)nc3)cc(-c3cccc(Br)c3)c12 [ABT-702]
- cardiac fibroblast cell death by conditioned medium of cardiomyocytes treated with AMP plus inhibitor (cardiac fibroblasts [1]): attenuated cell death

Compound: Nc1ncnc2c1ncn2[C@@H]1O[C@H](COP(=O)(O)O)[C@@H](O)[C@H]1O [AMP, Adenosine monophosphate]
- cell death of cardiac fibroblasts treated directly with the substance(s) (cardiac fibroblasts [2]): did not induce cell death
- cardiac fibroblast cell death by conditioned medium of cardiomyocytes treated with the substance alone (cardiac fibroblasts [1]): caused cell death

Compound: Nc1ncnc2c1ncn2[C@@H]1O[C@H](COP(=O)(O)CP(=O)(O)O)[C@@H](O)[C@H]1O [AMP-CP]
- cardiac fibroblast cell death by conditioned medium of cardiomyocytes treated with AMP plus inhibitor (cardiac fibroblasts [1]): significantly increases cardiac fibroblast cell death

Compound: Nc1ncnc2c1ncn2[C@@H]1O[C@H](COP(=O)(O)OP(=O)(O)OP(=O)(O)O)[C@@H](O)[C@H]1O [ATP]
- reduction in the number of ENPP1 over-expressing cardiac fibroblasts ([3]; ATP added to co-culture with neonatal rat ventricular cardiomyocytes, within 48 hours): 75%

Compound: COc1ccc(-c2nc([C@@H](C)Sc3nc(N)cc(N)n3)c(C)s2)cc1OCCN1CCOCC1 [DI-87]
- rescue by deoxycytidine of ENPP1+ATP conditioned medium induced cell death in presence of deoxycytidine kinase inhibitor (cardiac fibroblasts [4]): unable to prevent cell death

Compound: CCNC(=O)[C@H]1O[C@@H](n2cnc3c(N)ncnc32)[C@H](O)[C@@H]1O [NECA]
- cardiac fibroblast cell death by conditioned medium of cardiomyocytes treated with the substance alone (cardiac fibroblasts [1]): did not cause fibroblast cell death

Compound: O=C(O)c1cc(=O)[nH]c(=O)n1[C@@H]1O[C@H](COP(=O)(O)O)[C@@H](O)[C@H]1O [OMP, orotidine monophosphate]
- cell death of cardiac fibroblasts treated with adenine and adenosine plus the substance (cardiac fibroblasts [2]): rescue of cell death
- cell death of cardiac fibroblasts treated with ENPP1+ATP myocyte conditioned medium in presence of the substance (cardiac fibroblasts [4]): completely rescued cell death

Compound: O=P(O)(O)OP(=O)(O)O [PPi, pyrophosphate]
- cardiac fibroblast cell death by conditioned medium of cardiomyocytes treated with the substance alone (cardiac fibroblasts [1]): not

Compound: Nc1ncnc2nc[nH]c12 [adenine, Adenine]
- cell death of cardiac fibroblasts after removal of the compound from the set of 7 compounds (cardiac fibroblasts [2]): no cell death
- cell death of cardiac fibroblasts treated directly with the substance(s) (cardiac fibroblasts [2]): no cell death was observed

Compound: Nc1ncnc2c1ncn2[C@@H]1O[C@H](CO)[C@@H](O)[C@H]1O [adenosine, Adenosine]
- cardiac fibroblast cell death by conditioned medium of cardiomyocytes treated with the substance alone (cardiac fibroblasts [1]): unable to induce cell death

Compound: Cc1c(-c2ccc(-c3ccccc3F)cc2)nc2ccc(F)cc2c1C(=O)O [brequinar]
- cell death of cardiac fibroblasts treated directly with the substance(s) (cardiac fibroblasts [2]): cardiac fibroblast cell death

Compound: Nc1ccn([C@H]2C[C@H](O)[C@@H](CO)O2)c(=O)n1 [deoxycytidine]
- cell death of cardiac fibroblasts treated with ENPP1+ATP myocyte conditioned medium in presence of the substance (cardiac fibroblasts [4]): completely rescued cell death

Compound: CO[C@@]12[C@H](COC(N)=O)C3=C(C(=O)C(C)=C(N)C3=O)N1C[C@@H]1N[C@@H]12 [mitomycin C]
- cell death of cardiac fibroblasts treated with ENPP1+ATP myocyte conditioned medium in presence of the substance (cardiac fibroblasts [4]): resistant to cell death
- cell death of mEF treated with ENPP1+ATP myocyte conditioned medium after cell cycle arrest [5]: prevented cell death

Compound: O=c1c(O)c(-c2cc(O)c(O)c(O)c2)oc2cc(O)cc(O)c12 [myricetin]
- p53Ser15 phosphorylation in non-myocyte cells [6]: attenuated
- expression of gamma H2A.X in non-myocyte cells ([6]; 7 days following injury): attenuated expression
- fraction of animals with severe fibrosis (>40% of the LV surface area) [7, 8]: 15%
- fraction of animals with severe heart failure (EF<20%) [7, 8]: 23%
- LVIDs (ventricular chamber size) [7, 9]: 3.68±0.23
- ejection fraction [7, 9]: 38.04±3.74%
- fractional shortening [7, 9]: 18.67±2.05%
- body weight ([7]; mouse, in vivo): without any change
- capillary density ([7]; myricetin, versus vehicle): significant increase
- ventricular hypertrophy ([7]; myricetin, versus vehicle): decreased
- area of scarring at the mid ventricular and apical regions ([7]; myricetin, 4 weeks post injury, versus vehicle): significantly reduced
- cell death of cardiac fibroblasts in co-culture after addition of ATP ([3]; concomitant addition of myricetin (10 uM)): significantly attenuated cell death
- inhibition of ENPP1 enzymatic activity (ENPP1): ~99%
- cardiac fibroblast cell death with conditioned medium of cardiomyocytes treated with ENPP1+ATP plus substance, versus ENPP1+ATP conditioned medium (cardiac fibroblasts [1]): significant reduction in cell death
- carbamoyl aspartate in the hearts (pyrimidine biosynthesis; myricetin versus vehicle injected animals (FIG. 8K legend)): decreased
- carbamoyl phosphate levels in the injured regions of the heart (pyrimidine biosynthesis; [10]): decrease
- level of cytidine in the injured regions of the heart (pyrimidine biosynthesis; [10]): significant increase
- level of uridine in the injured regions of the heart (pyrimidine biosynthesis; [10]): significant increase
- deoxyuridine in serum (pyrimidine biosynthesis; [11]): increased
- orotate in serum (pyrimidine biosynthesis; [11]): decrease
- orotidine in serum (pyrimidine biosynthesis; myricetin versus vehicle, day 7): increased

Compound: O=c1ccn([C@@H]2O[C@H](CO)[C@@H](O)[C@H]2O)c(=O)[nH]1 [uridine, Uridine]
- cell death of cardiac fibroblasts treated with adenine and adenosine plus the substance (cardiac fibroblasts [2]): rescue of cell death
- cell death of cardiac fibroblasts treated with brequinar plus uridine (cardiac fibroblasts [2]): rescue
- cell death of cardiac fibroblasts treated with the 7 compounds together with uridine (cardiac fibroblasts [2]): cell death was prevented
- animals with severe post infarct fibrosis (>40% of LV surface area) [7, 12]: none
- fraction of animals with severe depression in EF (less than 20%) [7, 12]: 13%
- end systolic ventricular diameters ([7]; uridine continuous infusion for 14 days, versus vehicle): trend towards better preservation
- ejection fraction (EF) [7, 13]: 37.02±3.12%
- fractional shortening (FS) [7, 13]: 18.01±1.68%
- heart weight/body weight ratios ([7]; uridine, versus vehicle): decreased
- capillary density ([7]; uridine, 4 weeks following injury): significantly increased
- fibrosis measured at the apex and mid ventricle ([7]; uridine, 4 weeks post injury, versus vehicle): decreased fibrosis
- cell death of cardiac fibroblasts treated with ENPP1+ATP myocyte conditioned medium in presence of the substance (cardiac fibroblasts [4]): completely rescued cell death
